Data: the supplement of paper PMC11208160
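Further: IS621 bridge recombinase in Escherichia coli cells against a fixed T5 target plasmid.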

Test: recombinant UMI read abundance after kanamycin selection (control-corrected) (log10(CPM+1)); higher = more efficient recombination; extreme values may be limits of the assay; sequences stand for … in AGTGCAGAGAAAATCGGCCAGTTTTCTCTGCCTGCAGTCCGCATGCCGTGGGACCCCTTGGGTTCTAACCTGTTGCCTAGATTTATGCAGCGGACTGCCTTTCTCCCAAAGTGATAAACCGG…AGGTTGGTTTCACT; site = the 11-nt donor
Summary of the method: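 Reported values are log10(CPM+1) from a pooled Escherichia coli screen of donor and donor-binding-loop pairs for the IS621 bridge recombinase. Selection used IPTG (0.07 mM) plus kanamycin, against unselected plating, each in two replicates. Recombinant UMIs were amplified across the donor–target junction, sequenced, converted to CPM, averaged over replicates and scaled by control-derived factors.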
With “GATTACCCATGGACCGGTTTTCCCGGTAATCCGTATTTGCT (site GATTAGCCTAG)” the “recombinant UMI read abundance (log10)” value was 0. For “GATTACCCATGGACCGGTTTTCCCGGTAATCCGTATTTGCT (site GATTATCCTAG)”, the “recombinant UMI read abundance (log10)” value was 0. With “GATTATCCATGGACCGGTTTTCCCGGTAATCCGTATTTGCT (site AATTATCCTAG)” the “recombinant UMI read abundance (log10)” value was 0. With “GATTATCCATGGACCGGTTTTCCCGGTAATCCGTATTTGCT (site CATTATCCTAG)” the “recombinant UMI read abundance (log10)” value was 0.436. In the case of “GATTATCCATGGACCGGTTTTCCCGGTAATCCGTATTTGCT (site GAATATCCTAG)”, the “recombinant UMI read abundance (log10)” value is reported as 0. With “GATTATCCATGGACCGGTTTTCCCGGTAATCCGTATTTGCT (site GACTATCCTAG)” the “recombinant UMI read abundance (log10)” value was 0. For “GATTATCCATGGACCGGTTTTCCCGGTAATCCGTATTTGCT (site GAGTATCCTAG)”, the “recombinant UMI read abundance (log10)” value was 0. In the case of “GATTATCCATGGACCGGTTTTCCCGGTAATCCGTATTTGCT (site GATAATCCTAG)”, the “recombinant UMI read abundance (log10)” value is reported as 0. With “GATTATCCATGGACCGGTTTTCCCGGTAATCCGTATTTGCT (site GATCATCCTAG)” the “recombinant UMI read abundance (log10)” value was 0.81. With “GATTATCCATGGACCGGTTTTCCCGGTAATCCGTATTTGCT (site GATGATCCTAG)” the “recombinant UMI read abundance (log10)” value was 0. For “GATTATCCATGGACCGGTTTTCCCGGTAATCCGTATTTGCT (site GATTAACCTAG)”, the “recombinant UMI read abundance (log10)” value was 0. For “GATTATCCATGGACCGGTTTTCCCGGTAATCCGTATTTGCT (site GATTACCCTAG)”, the “recombinant UMI read abundance (log10)” value was 0. With “GATTATCCATGGACCGGTTTTCCCGGTAATCCGTATTTGCT (site GATTAGCCTAG)” the “recombinant UMI read abundance (log10)” value was 0.351. In the case of “GATTATCCATGGACCGGTTTTCCCGGTAATCCGTATTTGCT (site GATTATACTAG)”, the “recombinant UMI read abundance (log10)” value is reported as 0. For “GATTATCCATGGACCGGTTTTCCCGGTAATCCGTATTTGCT (site GATTATCCTAA)”, the “recombinant UMI read abundance (log10)” value was 0.00555. For “GATTATCCATGGACCGGTTTTCCCGGTAATCCGTATTTGCT (site GATTATCCTAC)”, the “recombinant UMI read abundance (log10)” value was 0.0217. For “GATTATCCATGGACCGGTTTTCCCGGTAATCCGTATTTGCT (site GATTATCCTAG)”, the “recombinant UMI read abundance (log10)” value was 0. For “GATTATCCATGGACCGGTTTTCCCGGTAATCCGTATTTGCT (site GATTATCCTAT)”, the “recombinant UMI read abundance (log10)” value was 0.0146. With “GATTATCCATGGACCGGTTTTCCCGGTAATCCGTATTTGCT (site GATTATCCTCG)” the “recombinant UMI read abundance (log10)” value was 0. For “GATTATCCATGGACCGGTTTTCCCGGTAATCCGTATTTGCT (site GATTATCCTGG)”, the “recombinant UMI read abundance (log10)” value was 0. In the case of “GATTATCCATGGACCGGTTTTCCCGGTAATCCGTATTTGCT (site GATTATCCTTG)”, the “recombinant UMI read abundance (log10)” value is reported as 0. For “GATTATCCATGGACCGGTTTTCCCGGTAATCCGTATTTGCT (site GATTATGCTAG)”, the “recombinant UMI read abundance (log10)” value was 0. In the case of “GATTATCCATGGACCGGTTTTCCCGGTAATCCGTATTTGCT (site GATTATTCTAG)”, the “recombinant UMI read abundance (log10)” value is reported as 0. For “GATTATCCATGGACCGGTTTTCCCGGTAATCCGTATTTGCT (site GATTCTCCTAG)”, the “recombinant UMI read abundance (log10)” value was 0. For “GATTATCCATGGACCGGTTTTCCCGGTAATCCGTATTTGCT (site GATTGTCCTAG)”, the “recombinant UMI read abundance (log10)” value was 0. With “GATTATCCATGGACCGGTTTTCCCGGTAATCCGTATTTGCT (site GATTTTCCTAG)” the “recombinant UMI read abundance (log10)” value was 0. With “GATTATCCATGGACCGGTTTTCCCGGTAATCCGTATTTGCT (site GCTTATCCTAG)” the “recombinant UMI read abundance (log10)” value was 0. For “GATTATCCATGGACCGGTTTTCCCGGTAATCCGTATTTGCT (site GGTTATCCTAG)”, the “recombinant UMI read abundance (log10)” value was 0. With “GATTATCCATGGACCGGTTTTCCCGGTAATCCGTATTTGCT (site GTTTATCCTAG)” the “recombinant UMI read abundance (log10)” value was 0. For “GATTATCCATGGACCGGTTTTCCCGGTAATCCGTATTTGCT (site TATTATCCTAG)”, the “recombinant UMI read abundance (log10)” value was 0. With “GATTATGCATGGACCGGTTTTCCCGGTAATCCGTATTTGCT (site GATTATACTAG)” the “recombinant UMI read abundance (log10)” value was 1.54. In the case of “GATTATGCATGGACCGGTTTTCCCGGTAATCCGTATTTGCT (site GATTATCCTAG)”, the “recombinant UMI read abundance (log10)” value is reported as 0.309. With “GATTATGCATGGACCGGTTTTCCCGGTAATCCGTATTTGCT (site GATTATGCTAG)” the “recombinant UMI read abundance (log10)” value was 2.13. With “GATTATGCATGGACCGGTTTTCCCGGTAATCCGTATTTGCT (site GATTATTCTAG)” the “recombinant UMI read abundance (log10)” value was 0. With “GATTCACCATGGACCGGTTTTCCCGGTAATCCGTATTTGTT (site GATTCACCTAA)” the “recombinant UMI read abundance (log10)” value was 0.0124. In the case of “GATTCGACATGGACCGGTTTTCCCGGTAATCCGTATTTGAC (site GATTAGACTGT)”, the “recombinant UMI read abundance (log10)” value is reported as 0. With “GATTCGACATGGACCGGTTTTCCCGGTAATCCGTATTTGAC (site GATTCGACTGT)” the “recombinant UMI read abundance (log10)” value was 2.01. With “GATTCGACATGGACCGGTTTTCCCGGTAATCCGTATTTGAC (site GATTGGACTGT)” the “recombinant UMI read abundance (log10)” value was 0. For “GATTCGACATGGACCGGTTTTCCCGGTAATCCGTATTTGAC (site GATTTGACTGT)”, the “recombinant UMI read abundance (log10)” value was 0. With “GATTGCACATGGACCGGTTTTCCCGGTAATCCGTATTTGAC (site GATTGAACTGT)” the “recombinant UMI read abundance (log10)” value was 0. In the case of “GATTGCACATGGACCGGTTTTCCCGGTAATCCGTATTTGAC (site GATTGCACTGT)”, the “recombinant UMI read abundance (log10)” value is reported as 1.53. With “GATTGCACATGGACCGGTTTTCCCGGTAATCCGTATTTGAC (site GATTGGACTGT)” the “recombinant UMI read abundance (log10)” value was 0. With “GATTGCACATGGACCGGTTTTCCCGGTAATCCGTATTTGAC (site GATTGTACTGT)” the “recombinant UMI read abundance (log10)” value was 0. With “GATTGCCCATGGACCGGTTTTCCCGGTAATCCGTATTTGAT (site GATTGCCCTAT)” the “recombinant UMI read abundance (log10)” value was 0. For “GATTGCCCATGGACCGGTTTTCCCGGTAATCCGTATTTGAT (site GCTTGCCCTAT)”, the “recombinant UMI read abundance (log10)” value was 0.0105. For “GATTGCCCATGGACCGGTTTTCCCGGTAATCCGTATTTGAT (site GGTTGCCCTAT)”, the “recombinant UMI read abundance (log10)” value was 0.00714. For “GATTGCCCATGGACCGGTTTTCCCGGTAATCCGTATTTGAT (site GTTTGCCCTAT)”, the “recombinant UMI read abundance (log10)” value was 0.00814. For “GATTGGACATGGACCGGTTTTCCCGGTAATCCGTATTTGAA (site GATTGGACTAT)”, the “recombinant UMI read abundance (log10)” value was 0.0122. For “GATTGGACATGGACCGGTTTTCCCGGTAATCCGTATTTGAA (site GATTGGACTCT)”, the “recombinant UMI read abundance (log10)” value was 0.0133. For “GATTGGACATGGACCGGTTTTCCCGGTAATCCGTATTTGAA (site GATTGGACTGT)”, the “recombinant UMI read abundance (log10)” value was 0. For “GATTGGACATGGACCGGTTTTCCCGGTAATCCGTATTTGAA (site GATTGGACTTT)”, the “recombinant UMI read abundance (log10)” value was 0.419. In the case of “GATTGGACATGGACCGGTTTTCCCGGTAATCCGTATTTGAC (site AATTGGACTGT)”, the “recombinant UMI read abundance (log10)” value is reported as 0.543. For “GATTGGACATGGACCGGTTTTCCCGGTAATCCGTATTTGAC (site CATTGGACTGT)”, the “recombinant UMI read abundance (log10)” value was 0.263. With “GATTGGACATGGACCGGTTTTCCCGGTAATCCGTATTTGAC (site GAATGGACTGT)” the “recombinant UMI read abundance (log10)” value was 1.41. For “GATTGGACATGGACCGGTTTTCCCGGTAATCCGTATTTGAC (site GACTGGACTGT)”, the “recombinant UMI read abundance (log10)” value was 0. For “GATTGGACATGGACCGGTTTTCCCGGTAATCCGTATTTGAC (site GAGTGGACTGT)”, the “recombinant UMI read abundance (log10)” value was 0. With “GATTGGACATGGACCGGTTTTCCCGGTAATCCGTATTTGAC (site GATAGGACTGT)” the “recombinant UMI read abundance (log10)” value was 0.353.
